US11298344B2, “Composition for inhibiting sodium leak channel (NALCN), comprising n-benzhydryl quinuclidine derivatives” (Research & Business Foundation Sungkyunkwan University, priority 2018, dated 2022)

Experiments:
Format in all cases: cell-based
NALCN [1] = target: T1, NALCN (Rattus norvegicus, UniProt Q6Q760); test: Patch-clamp of HEK293T cells transfected with M3R and NALCN, CCh-induced inward current; details: for compound concentration which decreases half of a NALCN current (rank order): CCh-induced current; for inhibitory effect on a CCh-induced NALCN current: FIG. 6; for activation of NALCN by CCh in the presence of the compound: compound present before CCh
T1 construct: expressed in transfected cells; host or cells: HEK293T
Protocol: (§1) HEK293T cells were cultured in a DMEM ([…]) medium containing 10% FBS and 1% antibiotics using an incubator having a condition of 37° C. and 5% CO2. NALCN and TRPC cDNAs were respectively constructed using a vector that expresses GFP under an independent promoter. Lipofectamine 2000, which is used as a transfection reagent, was mixed with each plasmid and the cells were treated with the mixture. Then, after 48 hours, expression was identified. In order to identify whether normal transfection with each plasmid occurred, only the cells in which GFP was expressed were selected.
(§2) The HEK293T cells were transfected with combinations of M3R and NALCN, M3R and GFP, and M3R and TRPCs.
Among the transfected HEK293T cells acquired in Experimental Method 2, cells expressing GFP were selected, and a patch pipette formed of a thin glass tube was inserted into a membrane surface. After setting −80 mV as a holding potential, a current was measured. Under the holding potential, treatment with carbachol (CCh) which is an activator of M3R was performed to identify a current induced by NALCN. An extracellular solution was treated with 50 μM of L703606, and change of current caused by CCh was identified. In addition, based on voltage-independent characteristics of NALCN, currents obtained by varying the voltage from −80 mV to +10 mV were measured, and change of current caused by the treatment with L703606 was recorded. All data were presented as mean±standard deviation calculated after treatment with an inhibitor relative to a control (** P<0.01).
HEK293T cells are non-neuronal cells commonly used for transfection of genes. Based on the report that a NALCN channel is activated by M3R in pancreatic beta cells MIN6 and HEK293 cells, M3R and NALCN plasmids that had been cloned from rat brain were co-transfected into HEK293T cells to identify whether L703606 inhibits a NALCN current activated by M3R.

NALCN [2] = target: T2, NALCN (Mus musculus, UniProt Q8BXR5); test: Patch-clamp of isolated midbrain dopaminergic neurons (background and NT-induced currents, membrane voltage)
T2 construct: from tissue; host or cells: acutely isolated dopaminergic neurons of mouse substantia nigra pars compacta (TH-GFP mice)
Protocol: In order to obtain midbrain dopaminergic neurons from mice, substantia nigra pars compacta within mouse midbrain in which GFP was expressed due to tyrosine hydroxylase (TH) promoter was cut into sections. In order to isolate tissue, the sections were subjected to treatment with a highly-concentrated glucose solution at 36.5° C. which contains papain (4 U ml-1) for 20 minutes or longer. The enzymatically-treated sections of substantia nigra pars compacta were washed with a highly-concentrated glucose solution, and then slowly agitated using Pasteur pipettes with various size holes so that the respective dopaminergic neurons were isolated. All animal experiments were conducted under approval of the Institutional Animal Care and Use Committee (IACUC) of Sungkyunkwan University School of Medicine.
Among the dopaminergic neurons isolated in Experimental Method 1, dopaminergic neurons expressing GFP were selected, and a patch pipette formed of thin glass tube was inserted into a membrane surface. After setting −60 mV as a holding potential, a current was measured. A background current was identified under the holding voltage. After treatment with NT, a current was identified. Then, additionally, an extracellular solution was treated with 10 μM of L703606, and change of current was identified. In addition, the above procedure was repeated by replacing sodium ion with N-methyl-D-glucamine (NMDG). After treating the extracellular solution with 0.5 μM of tetrodotoxin (TTX) and 30 μM of ZD7288 which are a voltage-gated sodium channel inhibitor and an HCN channel inhibitor, respectively, a voltage was measured. Additionally, change of voltage at the time of treatment with 10 μM of L703606 was identified. All data were presented as mean±standard deviation calculated at the time of treatment with the inhibitors and replacement of sodium ion, relative to a control. (* P<0.05, ** P<0.01, *** P<0.001).
In addition, it was possible to identify that at the time of replacing sodium with NMDG, the background current was close to 0 pA, and an inward current was not induced by the treatment with NT. From this, it can be seen that the background current is generated by sodium ions.

[3] = test system: transient receptor potential canonical (TRPC) 3, 4, 5, 6, or 7 channel; test: Patch-clamp of HEK293T cells transfected with M3R and a TRPC channel, CCh-induced inward current; details: holding potential −60 mV, second CCh stimulus, Na+ and K+ removed, cesium added
Protocol: as §1, §2
From the above, it was possible to identify NALCN inhibitory effects of the NBQN derivatives. Furthermore, in the present example, it was intended to identify whether the NBQN derivatives have specific and exclusive inhibitory activity against NALCN. […]

[4] = holding potential −60 mV, 10 μM of L703606
[5] = holding potential −60 mV, 20 μM of PP1

T1 sequence (Q6Q760 whole entry): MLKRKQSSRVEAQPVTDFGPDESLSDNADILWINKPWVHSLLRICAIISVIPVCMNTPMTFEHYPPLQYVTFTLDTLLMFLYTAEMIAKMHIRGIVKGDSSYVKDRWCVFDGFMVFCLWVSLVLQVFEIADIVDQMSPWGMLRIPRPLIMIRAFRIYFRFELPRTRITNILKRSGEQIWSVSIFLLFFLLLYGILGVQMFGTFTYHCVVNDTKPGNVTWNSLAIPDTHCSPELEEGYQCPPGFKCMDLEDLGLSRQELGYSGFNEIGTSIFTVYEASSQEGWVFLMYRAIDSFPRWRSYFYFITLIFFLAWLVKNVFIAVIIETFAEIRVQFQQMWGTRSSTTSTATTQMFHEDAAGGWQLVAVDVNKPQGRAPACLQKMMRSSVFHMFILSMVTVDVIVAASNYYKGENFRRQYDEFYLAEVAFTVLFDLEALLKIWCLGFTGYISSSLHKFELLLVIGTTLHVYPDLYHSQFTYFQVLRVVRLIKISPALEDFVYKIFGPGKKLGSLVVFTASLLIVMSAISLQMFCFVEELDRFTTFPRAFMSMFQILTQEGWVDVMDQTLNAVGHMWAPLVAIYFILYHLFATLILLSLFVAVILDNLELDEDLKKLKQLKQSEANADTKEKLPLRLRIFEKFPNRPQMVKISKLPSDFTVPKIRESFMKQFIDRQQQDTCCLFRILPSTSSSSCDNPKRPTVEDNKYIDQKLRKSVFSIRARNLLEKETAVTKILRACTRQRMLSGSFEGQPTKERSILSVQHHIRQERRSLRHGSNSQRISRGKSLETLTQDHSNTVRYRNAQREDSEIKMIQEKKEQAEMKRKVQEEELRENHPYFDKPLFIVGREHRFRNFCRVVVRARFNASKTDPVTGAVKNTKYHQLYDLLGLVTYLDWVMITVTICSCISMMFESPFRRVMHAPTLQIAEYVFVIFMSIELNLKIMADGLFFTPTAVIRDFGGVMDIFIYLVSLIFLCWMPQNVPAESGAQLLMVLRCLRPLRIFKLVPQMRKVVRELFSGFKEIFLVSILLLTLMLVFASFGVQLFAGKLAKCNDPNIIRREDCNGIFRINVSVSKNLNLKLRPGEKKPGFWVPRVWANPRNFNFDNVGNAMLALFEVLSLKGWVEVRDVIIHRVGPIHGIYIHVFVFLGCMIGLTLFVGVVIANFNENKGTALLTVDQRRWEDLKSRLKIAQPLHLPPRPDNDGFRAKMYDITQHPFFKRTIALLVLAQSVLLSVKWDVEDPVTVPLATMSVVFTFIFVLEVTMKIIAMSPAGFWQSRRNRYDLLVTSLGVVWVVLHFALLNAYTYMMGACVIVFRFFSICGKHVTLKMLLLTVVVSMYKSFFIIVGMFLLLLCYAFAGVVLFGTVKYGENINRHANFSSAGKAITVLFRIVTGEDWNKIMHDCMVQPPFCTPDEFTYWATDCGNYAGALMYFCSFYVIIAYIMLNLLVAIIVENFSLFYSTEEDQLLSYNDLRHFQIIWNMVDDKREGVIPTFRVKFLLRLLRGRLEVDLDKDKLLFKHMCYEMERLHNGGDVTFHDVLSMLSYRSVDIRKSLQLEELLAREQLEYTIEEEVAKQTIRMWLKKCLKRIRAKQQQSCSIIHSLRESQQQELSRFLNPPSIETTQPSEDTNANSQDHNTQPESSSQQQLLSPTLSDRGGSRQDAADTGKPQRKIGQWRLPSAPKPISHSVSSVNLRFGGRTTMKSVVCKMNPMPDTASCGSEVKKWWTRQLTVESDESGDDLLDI

Ic1ccccc1CNC1C2CCN(CC2)C1C(c1ccccc1)c1ccccc1 (centres unmarked) [L703606, 2-(Diphenylmethyl)-N-(2-iodobenzyl)quinuclidin-3-amine]
inhibition at 50 µM (NALCN [1]; HEK-293T, cells that co-express M3R-NALCN, holding potential −80 mV, 50 μM of L703606): ≥ 90% | CCh-induced inward current in the presence of PP1, after treatment with L703606 (NALCN [1]; M3R-NALCN HEK293T cells): returning to the background current again immediately | compound concentration which decreases half of a NALCN current (rank order) (NALCN [1]; M3R-NALCN HEK293T cells): highest inhibitory effect | inhibitory effect on a CCh-induced NALCN current (NALCN [1]; M3R-NALCN HEK293T cells): inhibit a CCh-induced NALCN current in a similar fashion | activation of NALCN by CCh in the presence of the compound (NALCN [1]; M3R-NALCN HEK293T cells): not possible to observe activation of NALCN | CCh-induced NALCN current where voltage is changed (NALCN [1]; voltage from −80 mV to +10 mV): decreased to a control level | spontaneous activity voltage (NALCN [2]; 10 μM of L703606): completely inhibited | background current (NALCN [2]; [4]): decreased | inward current induced by NT (NALCN [2]; [4]): not induced | membrane potential (NALCN [2]; spontaneous activity stopped by 0.5 μM TTX and 30 μM ZD7288, 10 μM of L703606): induced hyperpolarization of membrane potential

COc1ccccc1CN[C@H]1CCCN[C@H]1c1ccccc1 [CP99994, (2S,3S)-N-[(2-methoxyphenyl)methyl]-2-phenylpiperidin-3-amine]
inhibitory effect on a CCh-induced NALCN current (NALCN [1]; M3R-NALCN HEK293T cells): insignificant inhibitory effect

Cc1ccc(-c2nn(C(C)(C)C)c3ncnc(N)c23)cc1 [PP1]
activation of NALCN by CCh in the presence of the compound (NALCN [1]; M3R-NALCN HEK293T cells): strong inward current induced by activation of NALCN | inhibition of the CCh-induced inward current (NALCN [1]; cells that co-express M3R-NALCN, treatment with PP1): did not greatly inhibit | background current (NALCN [2]; [5]): little effect on the background current | inward current induced by NT stimulus (NALCN [2]; [5]): remarkably decreased

COc1ccc(CCCOC(Cn2ccnc2)c2ccc(OC)cc2)cc1 (centres unmarked) [SKF96365]
CCh-induced inward current (TRPC current activated by M3R) [3]: not created at all

COc1ccccc1CNC1C2CCN(CC2)C1C(c1ccccc1)c1ccccc1 (centres unmarked) [CP96345, 2-(Diphenylmethyl)-N-(2-methoxybenzyl)quinuclidin-3-amine]
compound concentration which decreases half of a NALCN current (rank order) (NALCN [1]; M3R-NALCN HEK293T cells): next highest inhibitory effects | inhibitory effect on a CCh-induced NALCN current (NALCN [1]; M3R-NALCN HEK293T cells): inhibit a CCh-induced NALCN current in a similar fashion

COc1ccc(C(C)(C)C)cc1CN[C@H]1C2CCN(CC2)[C@H]1C(c1ccccc1)c1ccccc1 [Maropitant, (2S,3S)-2-(Diphenylmethyl)-N-[2-methoxy-5-(2-methyl-2-propanyl)benzyl]quinuclidin-3-amine]
compound concentration which decreases half of a NALCN current (rank order) (NALCN [1]; M3R-NALCN HEK293T cells): next highest inhibitory effects | inhibitory effect on a CCh-induced NALCN current (NALCN [1]; M3R-NALCN HEK293T cells): inhibit a CCh-induced NALCN current in a similar fashion
